Measured values: ChEMBL document CHEMBL1201862, “PubChem BioAssay data set” (2004)
Calls of active or inactive are those of the source.

Legend:
[1] = viability of uninfected HEp-2 cells – cell-based, HTS, cytotoxicity control for RSV inhibitor project, dose response (AID 2410); assay type: functional; conditions: human respiratory syncytial virus
[2] = A cytotoxicity screen of small molecule inhibitors of the PhoP region in Salmonella typhi identified in the primary screen. [Related pubchem assays: 1850, 1864, 1985 ]; assay type: functional
Vero = assay: mammalian cell viability reduction – secondary assay, cytotoxicity control for West Nile virus antiviral project, dose response (AID 1650); assay type: functional; conditions: Chlorocebus sabaeus
[3] = HIV-1 AD8 envelope cell-cell fusion blockers – cherry-pick, dose response (AID 652062); assay type: functional, cell-based;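 further: luciferase signal from cell-cell fusion driven by HIV-1 clade B AD8 Env; potency is for inhibitors of fusion seen as a drop in luminescence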
[4] = blockers of HIV-1 ZM109 envelope-driven cell-cell fusion – HeLa effector, CEM target cells, luciferase, cherry-pick, dose response (AID 652058); assay type: functional, cell-based;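 further: luciferase signal from HIV-1 Env mediated cell-cell fusion of effector and target cells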
[5] = off-target signal loss in HeLa-CEM21 co-culture – HeLa F-luc CTL cells, cherry-picked, counter-screen for HIV-1 Env fusion inhibitor project, dose response (AID 652040); assay type: functional, cell-based;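 further: potency for signal decrease marking cytotoxic or nonspecific inhibition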
[6] = blockers of HIV-1 envelope-mediated cell-cell fusion – cherry-pick, dose response (AID 652057); assay type: functional, cell-based
[7] = alpha-synuclein stem-loop luciferase translation blockers – H4 neuroglioma cells, luminescence, confirmation (AID 1988); assay type: functional, cell-based
[8] = Luminescence Cell-Based Dose Response HTS to Identify Inhibitors of 5'UTR Stem-Loop Driven Prion Protein mRNA Translation in H4 Neuroglioblastoma Cells. [Related pubchem assays: 1827 (Project Summary), 1813 (Primary HTS)]; assay type: functional
[9] = luciferase reporter signal suppression in cells – H4 neuroglioma cells, luminescence, dose response (AID 1990); assay type: functional, cell-based
Estrogen receptor beta = Estrogen receptor beta (Homo sapiens, UniProt Q92731); assay: blockers of SRC-3 recruitment to ERβ – biochemical, ELISA, streptavidin-HRP readout, orthogonal assay, confirmation (AID 1060)
Sequence of Estrogen receptor beta (Q92731 whole entry): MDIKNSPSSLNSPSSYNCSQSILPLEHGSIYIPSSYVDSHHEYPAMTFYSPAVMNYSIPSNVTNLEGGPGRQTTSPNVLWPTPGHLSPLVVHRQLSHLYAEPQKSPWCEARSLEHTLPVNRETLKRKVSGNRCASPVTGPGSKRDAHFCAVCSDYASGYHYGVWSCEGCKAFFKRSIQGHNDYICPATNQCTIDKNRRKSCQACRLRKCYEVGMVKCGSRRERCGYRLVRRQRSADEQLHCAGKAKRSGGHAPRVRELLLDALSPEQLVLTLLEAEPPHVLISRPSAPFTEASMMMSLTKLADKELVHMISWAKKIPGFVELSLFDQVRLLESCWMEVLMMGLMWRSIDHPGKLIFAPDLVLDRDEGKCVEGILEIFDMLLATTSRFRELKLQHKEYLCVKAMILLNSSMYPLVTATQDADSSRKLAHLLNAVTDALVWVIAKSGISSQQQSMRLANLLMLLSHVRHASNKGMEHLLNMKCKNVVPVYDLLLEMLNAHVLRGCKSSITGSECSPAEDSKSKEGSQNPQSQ

[10] = target: T1, Polyadenylate-binding protein 1 (Homo sapiens, UniProt P11940); assay: MLLE binding blockers, Cy5 peptide tracer – biochemical, fluorescence polarization, Cy5-PAM2 peptide, secondary, miRNA deadenylation inhibitor project, dose response (AID 602260); assay type: functional; conditions: read-out: IC50_Mean
T1 sequence (P11940 whole entry, the tested form may be a part): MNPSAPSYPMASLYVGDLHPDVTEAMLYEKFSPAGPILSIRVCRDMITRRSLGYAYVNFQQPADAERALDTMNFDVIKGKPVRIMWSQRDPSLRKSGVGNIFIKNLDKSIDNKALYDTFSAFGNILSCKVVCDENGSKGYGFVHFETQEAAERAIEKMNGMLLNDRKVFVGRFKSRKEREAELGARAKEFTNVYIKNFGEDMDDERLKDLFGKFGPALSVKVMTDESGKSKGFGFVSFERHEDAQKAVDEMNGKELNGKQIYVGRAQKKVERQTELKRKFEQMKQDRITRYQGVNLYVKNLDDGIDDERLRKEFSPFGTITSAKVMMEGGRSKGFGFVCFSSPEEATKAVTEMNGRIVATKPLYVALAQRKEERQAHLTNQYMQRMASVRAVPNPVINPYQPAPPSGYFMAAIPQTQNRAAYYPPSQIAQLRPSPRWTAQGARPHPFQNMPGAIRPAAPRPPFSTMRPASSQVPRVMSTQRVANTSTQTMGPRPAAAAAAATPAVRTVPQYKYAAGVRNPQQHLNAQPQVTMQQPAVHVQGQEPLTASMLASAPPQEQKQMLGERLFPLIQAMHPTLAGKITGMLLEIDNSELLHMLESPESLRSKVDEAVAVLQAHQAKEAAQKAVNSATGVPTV

[11] = target: T1, Polyadenylate-binding protein 1; assay: MLLE domain peptide-binding blockers, IC50 – biochemical, fluorescence polarization, FITC-PAM2 peptide, dose response (AID 602259); assay type: functional; conditions: read-out: IC50_Mean
Leucine aminopeptidase = target: T2, Leucine aminopeptidase (Plasmodium falciparum 3D7, UniProt Q8IL11); assay: P. falciparum M17LAP inhibitors, primary screen, biochemical, fluorogenic H-Leu-NHMec substrate, 1536-well (AID 1619); assay type: functional
T2 sequence (Q8IL11 whole entry): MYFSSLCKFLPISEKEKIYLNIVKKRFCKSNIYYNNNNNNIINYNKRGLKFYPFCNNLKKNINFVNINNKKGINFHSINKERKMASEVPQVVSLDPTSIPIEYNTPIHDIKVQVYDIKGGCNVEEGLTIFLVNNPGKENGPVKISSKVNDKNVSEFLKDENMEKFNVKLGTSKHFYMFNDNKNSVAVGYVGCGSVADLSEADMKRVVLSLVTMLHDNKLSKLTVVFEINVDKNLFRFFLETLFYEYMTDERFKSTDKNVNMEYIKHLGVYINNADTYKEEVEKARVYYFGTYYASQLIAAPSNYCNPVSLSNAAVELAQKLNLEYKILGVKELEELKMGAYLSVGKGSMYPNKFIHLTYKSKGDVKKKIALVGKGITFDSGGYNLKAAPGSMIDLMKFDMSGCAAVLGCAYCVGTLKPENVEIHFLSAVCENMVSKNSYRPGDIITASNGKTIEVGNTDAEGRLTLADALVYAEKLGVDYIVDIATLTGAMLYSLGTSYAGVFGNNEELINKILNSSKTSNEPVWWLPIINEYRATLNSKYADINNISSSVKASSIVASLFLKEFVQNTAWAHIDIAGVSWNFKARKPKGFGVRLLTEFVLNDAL

[12] = target: Glyceraldehyde-3-phosphate dehydrogenase (Homo sapiens, UniProt P04406)
Sequence of Glyceraldehyde-3-phosphate dehydrogenase (P04406 whole entry): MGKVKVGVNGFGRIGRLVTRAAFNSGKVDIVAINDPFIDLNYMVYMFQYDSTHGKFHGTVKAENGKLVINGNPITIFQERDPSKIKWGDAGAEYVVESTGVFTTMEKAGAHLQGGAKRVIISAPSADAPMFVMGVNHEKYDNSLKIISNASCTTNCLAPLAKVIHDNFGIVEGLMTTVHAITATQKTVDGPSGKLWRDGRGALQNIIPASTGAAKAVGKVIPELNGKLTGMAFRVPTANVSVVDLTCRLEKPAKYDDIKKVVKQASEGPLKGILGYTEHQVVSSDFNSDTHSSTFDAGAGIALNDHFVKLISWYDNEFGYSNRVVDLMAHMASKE

[13] = target: T3, Long-chain-fatty-acid--AMP ligase FadD28 (Mycobacterium tuberculosis, UniProt P9WQ59); assay: Fluorescence polarization aasay to screen for inhibitors that compete for the binding of FadD28 to a bisubstrate Measured in Biochemical System Using Plate Reader - 2147-01_Inhibitor_Dose_CherryPick_Activity.; assay type: functional, Mycobacterium tuberculosis H37Rv
T3 sequence (P9WQ59 whole entry): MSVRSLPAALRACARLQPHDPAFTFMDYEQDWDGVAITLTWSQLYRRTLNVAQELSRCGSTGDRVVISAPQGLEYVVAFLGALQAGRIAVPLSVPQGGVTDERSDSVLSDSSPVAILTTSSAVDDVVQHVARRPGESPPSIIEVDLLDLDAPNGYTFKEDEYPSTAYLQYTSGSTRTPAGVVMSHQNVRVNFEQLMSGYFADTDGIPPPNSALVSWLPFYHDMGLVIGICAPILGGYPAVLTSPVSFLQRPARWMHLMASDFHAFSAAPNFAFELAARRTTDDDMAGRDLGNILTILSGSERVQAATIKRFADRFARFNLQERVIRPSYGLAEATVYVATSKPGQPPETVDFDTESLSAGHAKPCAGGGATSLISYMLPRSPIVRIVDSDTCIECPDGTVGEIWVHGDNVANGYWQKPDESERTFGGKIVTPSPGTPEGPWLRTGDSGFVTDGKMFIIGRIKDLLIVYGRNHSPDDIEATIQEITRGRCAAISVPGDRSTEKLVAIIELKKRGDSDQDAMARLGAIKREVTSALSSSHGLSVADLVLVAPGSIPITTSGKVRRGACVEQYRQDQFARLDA

[14] = target: T4, Histone-lysine N-methyltransferase NSD2 (Homo sapiens, UniProt O96028); assay type: biochemical
T4 sequence (O96028 whole entry): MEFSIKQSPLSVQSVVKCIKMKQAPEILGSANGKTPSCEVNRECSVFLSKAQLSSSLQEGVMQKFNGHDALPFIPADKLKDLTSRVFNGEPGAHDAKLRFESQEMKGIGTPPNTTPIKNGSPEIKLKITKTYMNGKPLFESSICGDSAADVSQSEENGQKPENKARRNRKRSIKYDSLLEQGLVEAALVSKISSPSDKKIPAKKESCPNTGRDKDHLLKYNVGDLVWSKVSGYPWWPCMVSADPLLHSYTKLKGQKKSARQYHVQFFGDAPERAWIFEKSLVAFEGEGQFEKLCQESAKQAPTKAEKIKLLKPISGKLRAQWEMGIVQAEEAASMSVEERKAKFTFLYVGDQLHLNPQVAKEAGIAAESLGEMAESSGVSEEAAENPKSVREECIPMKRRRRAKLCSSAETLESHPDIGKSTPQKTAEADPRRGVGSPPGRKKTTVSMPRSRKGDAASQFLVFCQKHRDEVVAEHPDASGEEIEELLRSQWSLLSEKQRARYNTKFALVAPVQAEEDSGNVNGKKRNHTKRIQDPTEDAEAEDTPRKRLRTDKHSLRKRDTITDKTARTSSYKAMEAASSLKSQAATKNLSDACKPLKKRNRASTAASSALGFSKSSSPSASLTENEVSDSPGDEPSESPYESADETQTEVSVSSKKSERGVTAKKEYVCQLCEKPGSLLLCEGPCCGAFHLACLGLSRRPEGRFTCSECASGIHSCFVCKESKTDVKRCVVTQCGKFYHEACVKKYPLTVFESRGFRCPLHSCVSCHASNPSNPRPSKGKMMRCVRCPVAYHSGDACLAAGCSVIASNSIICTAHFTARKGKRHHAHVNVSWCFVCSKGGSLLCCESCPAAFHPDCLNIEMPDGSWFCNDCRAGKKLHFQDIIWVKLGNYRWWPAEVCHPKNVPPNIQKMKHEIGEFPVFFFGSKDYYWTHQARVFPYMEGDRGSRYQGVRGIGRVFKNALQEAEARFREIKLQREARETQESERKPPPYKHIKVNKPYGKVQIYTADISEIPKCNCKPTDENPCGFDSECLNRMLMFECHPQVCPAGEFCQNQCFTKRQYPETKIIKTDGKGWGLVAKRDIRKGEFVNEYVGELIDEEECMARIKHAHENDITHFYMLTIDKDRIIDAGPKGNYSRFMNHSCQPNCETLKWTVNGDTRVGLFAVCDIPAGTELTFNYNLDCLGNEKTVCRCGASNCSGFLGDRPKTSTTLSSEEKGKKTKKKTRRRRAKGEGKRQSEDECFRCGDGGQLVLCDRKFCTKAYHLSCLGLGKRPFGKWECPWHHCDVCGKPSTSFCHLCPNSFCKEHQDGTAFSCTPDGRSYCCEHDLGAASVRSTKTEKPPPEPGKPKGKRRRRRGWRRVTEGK

[15] = target: T5, DNA repair protein RAD52 homolog (Homo sapiens, UniProt P43351); assay type: functional, biochemical
T5 sequence (P43351 whole entry): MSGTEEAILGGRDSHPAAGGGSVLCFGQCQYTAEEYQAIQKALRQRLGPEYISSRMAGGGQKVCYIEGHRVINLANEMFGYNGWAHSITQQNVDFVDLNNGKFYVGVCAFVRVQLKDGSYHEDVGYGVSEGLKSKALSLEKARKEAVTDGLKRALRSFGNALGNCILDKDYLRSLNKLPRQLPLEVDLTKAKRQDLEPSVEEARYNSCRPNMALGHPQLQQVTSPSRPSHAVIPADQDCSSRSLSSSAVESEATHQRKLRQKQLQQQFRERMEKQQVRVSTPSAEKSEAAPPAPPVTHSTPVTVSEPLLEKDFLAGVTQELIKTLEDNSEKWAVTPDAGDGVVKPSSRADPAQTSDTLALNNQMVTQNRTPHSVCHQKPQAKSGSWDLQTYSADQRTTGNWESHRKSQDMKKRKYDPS

[16] = target: T6, Ubiquitin-conjugating enzyme E2 N (Homo sapiens, UniProt P61088); assay type: functional;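 further: Dose-response confirmation in a TR-FRET assay detecting UBC13-driven polyubiquitin chain formation, inhibition measured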
T6 sequence (P61088 whole entry): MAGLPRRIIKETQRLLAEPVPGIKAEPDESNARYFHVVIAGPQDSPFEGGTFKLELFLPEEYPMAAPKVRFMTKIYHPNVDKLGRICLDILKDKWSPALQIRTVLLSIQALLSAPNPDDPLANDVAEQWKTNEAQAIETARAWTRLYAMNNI

[17] = general mammalian cell viability loss – inhibitor set, cherry-pick, set 2, cytotoxicity control for miR-122 modulator project, dose response (AID 720697); assay type: functional, cell-based

Cc1ccc(C)c(Nc2cc(C)nc3ccccc23)c1
CC50 [1]: 16.9 µM (active)
EC50 [2]: > 50 µM (active)

O=C(Nc1ccc(Cl)cc1-c1nc2ccccc2s1)c1ccco1
CC50 (Vero): 13.3 µM (active)

O=S1(=O)c2c(cccc2N2CCCCC2)O[C@H](COCc2ccccc2)CN1C1CC1
AC50 [3]: 22.4 µM (active)
AC50 [4]: 4.61 µM (active)
AC50 [5]: 16.3 µM (active)
AC50 [6]: 6.53 µM (active)

CN1CCN(c2nc3ccccc3nc2C(C#N)S(=O)(=O)c2ccccc2)CC1 (stereo not given)
EC50 [7]: 18.8 µM (active)
CC50 (Vero): 4.16 µM (active)
EC50 [8]: > 120 µM (not active)
EC50 [9]: > 120 µM (not active)

CCn1cc(-c2cc(C(F)(F)F)n3nc(C(=O)O)cc3n2)c(C)n1
IC50 (Estrogen receptor beta): 3.41 µM (not active)

CC(C)NS(=O)(=O)c1ccc(OCC(=O)N2CCN(Cc3ccc4c(c3)OCO4)CC2)c(Cl)c1
AC50 [3]: 13.4 µM (active)
AC50 [4]: 1.86 µM (active)
AC50 [5]: 29.7 µM (active)

Cc1nnc(N2C(=O)c3oc4ccccc4c(=O)c3C2c2ccco2)s1 (stereo not given)
IC50 [10]: > 66 µM (inactive)
IC50 [11]: > 66 µM (inactive)
IC50 (Estrogen receptor beta): 0.0501 µM (not active)

O=C(O)COc1ccc(Br)cc1/C=C1/SC(=O)N(CC(=O)N2CCCC2)C1=O
IC50 (Leucine aminopeptidase): 34.8 µM (active)

O=C1C(Cl)=C(N2CCN(c3ccccc3)CC2)C(=O)N1c1ccc(C(F)(F)F)cc1
IC50 [12]: > 50 µM (inconclusive)

C/C(NNC(=O)c1ccccc1O)=C1/C(=O)NC(=O)N(C2CCCCC2)C1=O
AC50 [13]: 24.7 µM (active)

CCCN(CCC)CCCN=C(S)Nc1ccc2nc(N3CCN(CC)CC3)cc(C)c2c1
AC50 [14]: > 20 µM (inactive)
AC50 [15]: 5.26 µM (active)

O=C(C[C@@H]1C/C=C/CC[C@@H](Cc2ccc(F)cc2)C(=O)O[C@H](c2ccccc2)CNC1=O)NCCO
AC50 [3]: 6.44 µM (active)
AC50 [4]: 5.4 µM (active)
AC50 [5]: 6.16 µM (active)
AC50 [6]: 5.18 µM (active)

COc1ccc(-n2cnc3c(sc4nc(N5CCOCC5)c5c(c43)CCCC5)c2=O)cc1
EC50 [2]: > 50 µM (active)

Cc1ccc(NC(=O)CN2C(=O)S/C(=C\c3cc(C)n(-c4ccc(C(=O)O)cc4)c3C)C2=O)cc1
AC50 [13]: 2.97 µM (active)

CN(C)CCn1cnc2c(c1=N)C(c1ccccc1)c1ccc3ccccc3c1O2 (stereo not given)
AC50 [15]: 23.6 µM (active)
EC50 [7]: > 120 µM (not active)
EC50 [8]: 0.18 µM (active)
IC50 [16]: > 20 µM (inactive)
EC50 [9]: > 120 µM (not active)

Cc1cc(C)nc(SCC(=O)Nc2sc3c(c2C#N)CCC(C)C3)n1 (stereo not given)
EC50 [2]: > 50 µM (active)

Cc1ccc(C(=O)Nc2nc(=O)n(C(=O)CC(C)C)s2)cc1
IC50 (Leucine aminopeptidase): 24.5 µM (active)

COc1ccc(Br)cc1S(=O)(=O)Nc1cnc2ccccc2c1
IC50 [12]: > 100 µM (not active)

CCOc1cc(/C=C2/NC(=O)N(CC(=O)Nc3cccc(C)c3)C2=O)ccc1O
AC50 [13]: 51.7 µM (active)

COCC(=O)NC[C@H]1[C@@H](c2ccc(C3=CCCC3)cc2)[C@@H](CO)N1C(=O)C1CC1
AC50 [17]: 9.14 µM (active)

O=C(O)CC/C(=N/NC(=O)c1cccs1)c1ccccc1
IC50 (Leucine aminopeptidase): 36 µM (active)
